Assay results from the supplement of paper PMC11424490.

Columns and labels:
NCI-H2122 = assay: combination cScore with sotorasib (Bliss gap around IC50) (%PoC); higher = stronger additive effect
Outline: (§1)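 NCI-H2122, NCI-H358 and SW837 cells were plated in 384-well plates at 500 or 800 cells per well, treated with concentration matrices after 24 h, and grown for 72 h (SW837 for 144 h). Luminescence from CellTiter-Glo was expressed as percent of control relative to vehicle wells and fitted with four-parameter curves. The score is the mean Bliss-independence gap, expected minus measured viability, across a field around both monotherapy IC50 values, or across the top concentrations where no IC50 was reached.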

SW837 = assay: as above
Outline: as §1

| Structure (SMILES) | combination cScore with sotorasib (NCI-H2122) | combination cScore with sotorasib (SW837) |
| --- | --- | --- |
| CC(=O)O[C@H]1C(=O)[C@@]2(C)[C@H]([C@H](OC(=O)c3ccccc3)[C@]3(O)C[C@H](OC(=O)[C@H](O)[C@@H](NC(=O)c4ccccc4)c4ccccc4)C(C)=C1C3(C)C)[C@]1(OC(C)=O)CO[C@@H]1C[C@@H]2O [Paclitaxel] + C=CC(=O)N1CCN(c2nc(=O)n(-c3c(C)ccnc3C(C)C)c3nc(-c4c(O)cccc4F)c(F)cc23)[C@@H](C)C1 [sotorasib] | 9.86 | 3.37 |
| Nc1ccn([C@@H]2O[C@H](CO)[C@@H](O)C2(F)F)c(=O)n1 [Gemcitabine] + C=CC(=O)N1CCN(c2nc(=O)n(-c3c(C)ccnc3C(C)C)c3nc(-c4c(O)cccc4F)c(F)cc23)[C@@H](C)C1 [sotorasib] | 3.14 | 1.12 |
| CNC(=O)c1ccc(N2C(=S)N(c3ccc(C#N)c(C(F)(F)F)c3)C(=O)C2(C)C)cc1F [Enzalutamide] + C=CC(=O)N1CCN(c2nc(=O)n(-c3c(C)ccnc3C(C)C)c3nc(-c4c(O)cccc4F)c(F)cc23)[C@@H](C)C1 [sotorasib] | 6.62 | 5.64 |
| C[C@@H](Oc1cc(-c2cnn(C3CCNCC3)c2)cnc1N)c1c(Cl)ccc(F)c1Cl + C=CC(=O)N1CCN(c2nc(=O)n(-c3c(C)ccnc3C(C)C)c3nc(-c4c(O)cccc4F)c(F)cc23)[C@@H](C)C1 [sotorasib] | 2.31 | 13.5 |
| CO[C@H]1C[C@@H]2CC[C@@H](C)[C@@](O)(O2)C(=O)C(=O)N2CCCC[C@H]2C(=O)O[C@H]([C@H](C)C[C@@H]2CC[C@@H](OCCO)[C@H](OC)C2)CC(=O)[C@H](C)/C=C(\C)[C@@H](O)[C@@H](OC)C(=O)[C@H](C)C[C@H](C)/C=C/C=C/C=C/1C [Everolimus] + C=CC(=O)N1CCN(c2nc(=O)n(-c3c(C)ccnc3C(C)C)c3nc(-c4c(O)cccc4F)c(F)cc23)[C@@H](C)C1 [sotorasib] | 4.54 | -4.84 |
| CC1(C)CCC(CN2CCN(c3ccc(C(=O)NS(=O)(=O)c4ccc(NCC5CCOCC5)c([N+](=O)[O-])c4)c(Oc4cnc5[nH]ccc5c4)c3)CC2)=C(c2ccc(Cl)cc2)C1 [ABT-199] + C=CC(=O)N1CCN(c2nc(=O)n(-c3c(C)ccnc3C(C)C)c3nc(-c4c(O)cccc4F)c(F)cc23)[C@@H](C)C1 [sotorasib] | 11.2 | -2.18 |
| CNCc1ccc(-c2cc(-c3nc(-c4ccc(S(=O)(=O)C(C)C)cc4)cnc3N)on2)cc1 [VE-822/VX-970] + C=CC(=O)N1CCN(c2nc(=O)n(-c3c(C)ccnc3C(C)C)c3nc(-c4c(O)cccc4F)c(F)cc23)[C@@H](C)C1 [sotorasib] | 2.89 | -0.45 |
| On1ncc2cc(CCc3nn[nH]n3)ccc21 + C=CC(=O)N1CCN(c2nc(=O)n(-c3c(C)ccnc3C(C)C)c3nc(-c4c(O)cccc4F)c(F)cc23)[C@@H](C)C1 [sotorasib] | -2.12 | -12.1 |
| CC(=O)O[C@@]12CO[C@@H]1C[C@H](O)[C@@]1(C)C(=O)[C@H](O)C3=C(C)[C@@H](OC(=O)[C@H](O)[C@@H](NC(=O)OC(C)(C)C)c4ccccc4)C[C@@](O)([C@@H](OC(=O)c4ccccc4)[C@H]21)C3(C)C [Docetaxel] + C=CC(=O)N1CCN(c2nc(=O)n(-c3c(C)ccnc3C(C)C)c3nc(-c4c(O)cccc4F)c(F)cc23)[C@@H](C)C1 [sotorasib] | 1.66 | 3.98 |
| Cc1ncc([N+](=O)[O-])n1CCOC(=O)NC(Nc1ncccn1)C(Cl)(Cl)Cl (configuration not stated) [Apcin] + C=CC(=O)N1CCN(c2nc(=O)n(-c3c(C)ccnc3C(C)C)c3nc(-c4c(O)cccc4F)c(F)cc23)[C@@H](C)C1 [sotorasib] | -0.45 | 4.14 |
| CC[C@H](C)C(=O)O[C@H]1C[C@@H](C)C=C2C=C[C@H](C)[C@H](CC[C@@H]3C[C@@H](O)CC(=O)O3)[C@H]21 [Lovastatin] + C=CC(=O)N1CCN(c2nc(=O)n(-c3c(C)ccnc3C(C)C)c3nc(-c4c(O)cccc4F)c(F)cc23)[C@@H](C)C1 [sotorasib] | -1.83 | -0.46 |
| CC(O)(CS(=O)(=O)c1ccc(F)cc1)C(=O)Nc1ccc(C#N)c(C(F)(F)F)c1 (configuration not stated) [Bicalutamide] + C=CC(=O)N1CCN(c2nc(=O)n(-c3c(C)ccnc3C(C)C)c3nc(-c4c(O)cccc4F)c(F)cc23)[C@@H](C)C1 [sotorasib] | 3.68 | -1.56 |
| COC(=O)c1ccc2c(c1)NC(=O)/C2=C(\Nc1ccc(N(C)C(=O)CN2CCN(C)CC2)cc1)c1ccccc1 [Nintedanib] + C=CC(=O)N1CCN(c2nc(=O)n(-c3c(C)ccnc3C(C)C)c3nc(-c4c(O)cccc4F)c(F)cc23)[C@@H](C)C1 [sotorasib] | 11.8 | 0.78 |
| CC(=O)Nc1cccc(-n2c(=O)n(C3CC3)c(=O)c3c(Nc4ccc(I)cc4F)n(C)c(=O)c(C)c32)c1 [Trametinib] + C=CC(=O)N1CCN(c2nc(=O)n(-c3c(C)ccnc3C(C)C)c3nc(-c4c(O)cccc4F)c(F)cc23)[C@@H](C)C1 [sotorasib] | 14.2 | 14.5 |
| Cc1ncc(NC(=O)c2cccc(C(F)(F)F)c2)cc1-c1cnc(OC2CCOCC2)c(N2CCOCC2)c1 [RAF-709] + C=CC(=O)N1CCN(c2nc(=O)n(-c3c(C)ccnc3C(C)C)c3nc(-c4c(O)cccc4F)c(F)cc23)[C@@H](C)C1 [sotorasib] | 3.48 | 5.38 |
| CC(C)(C)c1nc(-c2cccc(NS(=O)(=O)c3c(F)cccc3F)c2F)c(-c2ccnc(N)n2)s1 [Dabrafenib] + C=CC(=O)N1CCN(c2nc(=O)n(-c3c(C)ccnc3C(C)C)c3nc(-c4c(O)cccc4F)c(F)cc23)[C@@H](C)C1 [sotorasib] | 13.3 | -2.81 |
| Nc1nc(Cl)nc2c1ncn2[C@@H]1O[C@H](CO)[C@@H](O)[C@@H]1F [Clofarabine] + C=CC(=O)N1CCN(c2nc(=O)n(-c3c(C)ccnc3C(C)C)c3nc(-c4c(O)cccc4F)c(F)cc23)[C@@H](C)C1 [sotorasib] | 1 | 3.33 |
| O=C(c1ccc(F)c(F)c1Nc1ccc(I)cc1F)N1CC(O)([C@@H]2CCCCN2)C1 [Cobimetinib] + C=CC(=O)N1CCN(c2nc(=O)n(-c3c(C)ccnc3C(C)C)c3nc(-c4c(O)cccc4F)c(F)cc23)[C@@H](C)C1 [sotorasib] | 5.25 | 11.3 |
| CC(C)(C(=O)NCC(F)(F)C(F)(F)F)C(=O)N[C@@H]1C(=O)Nc2ccccc2-c2ccccc21 + C=CC(=O)N1CCN(c2nc(=O)n(-c3c(C)ccnc3C(C)C)c3nc(-c4c(O)cccc4F)c(F)cc23)[C@@H](C)C1 [sotorasib] | 2.56 | 21.5 |
| CN[C@H]1CN(c2ccc3c(=O)c(C(=O)O)cn(-c4nccs4)c3n2)C[C@@H]1OC [Vosaroxin] + C=CC(=O)N1CCN(c2nc(=O)n(-c3c(C)ccnc3C(C)C)c3nc(-c4c(O)cccc4F)c(F)cc23)[C@@H](C)C1 [sotorasib] | 13.3 | 13.2 |
| C[C@]1(c2nc3c(C(N)=O)cccc3[nH]2)CCCN1 [Veliparib] + C=CC(=O)N1CCN(c2nc(=O)n(-c3c(C)ccnc3C(C)C)c3nc(-c4c(O)cccc4F)c(F)cc23)[C@@H](C)C1 [sotorasib] | 18.6 | 7.52 |
